Where two headings read alike, the source gives them in different places.
Columns and labels:
[1] = tested on: Ba/F3 cells stably expressing HER2 mutations (exons 19, 20, 21); assay: Ba/F3 HER2 mutant cell viability (Cell Titer Glo) TKI screen; format: cell-based; settings: for inhibitory activity for HER2 mutants across all three exons: exons 19, 20, 21; for inhibitory activity for HER2 mutants across all three exons / activity against cells expressing D769 variants / inhibiting cell viability in cells expressing exon 20 mutations: 72 hours; for sensitivity of HER2 mutants to inhibitor: all HER2 mutants, 72 hours drug treatment; for activity against cells expressing D769 variants: HER2 D769 variants; for inhibiting cell viability in cells expressing exon 20 mutations: HER2 exon 20 mutations
Method: Briefly, stable Ba/F3 cell lines were generated by retroviral transduction of Ba/F3 cell line for 12 hours. […] Three days after transduction, 2 μg/ml puromycin (Invitrogen) was added to the RPMI media. After 5 days of selection, cells were stained with FITC-HER2 (Biolegend) sorted by FACS. Cell lines were then grown in the absence of IL-3 for two weeks and cell viability was assessed every three days using the Cell Titer Glo assay (Progema).
(§1) Briefly, 2000-3000 cells per well were plated in 384-well plates (Greiner Bio-One) in technical triplicate. Cells were treated with seven different concentrations of tyrosine kinase inhibitors or vehicle alone at a final volume of 40 μL per well. After 3 days, 11μL of Cell Titer Glo was added to each well. Plates were shaken for 15 minutes, and bioluminescence was determined using a FLUOstar OPTIMA multi-mode micro-plate reader (BMG LABTECH). Bioluminescence values were normalized to DMSO treated cells, and normalized values were plotted in GraphPad Prism using non-linear regression fit to normalized data with a variable slope.

[2] = tested on: patients with HER2 mutant NSCLC; settings: cited from earlier work
[3] = tested on: MCF10A HER2 mutant cell lines; assay: MCF10A cell viability, HER2 exon 20 mutant cell lines together (average, selectivity vs HER2 WT, T-DM1 combination); format: cell-based, human
Method: as §1
Human Cell lines: MCF10A cells were purchased from ATCC and were cultured in DMEM/F12 media supplemented with 1% penicillin/streptomycin, 5% horse serum (sigma), 20 ng/ml EGF, […] hydrocortisone, and 10 μg/ml insulin. […] Two days after transduction, 0.5 μg/ml puromycin (Invitrogen) was added to the RPMI media. […] CW-2 cells were provided by the Riken cell line database under MTA, and were maintained in RPMI containing 10% FBS and 1% penicillin/streptomycin.

p-HER2 = assay: Western blot of p-HER2 in MCF10A HER2 G776delinsVC cells; format: cell-based, human; settings: 10 nM, 2 hours treatment
Method: Western Blotting: For Western blotting, cells were washed in PBS and lysed in RIPPA lysis buffer (ThermoFisher) and protease inhibitor cocktail tablets (Roche). Protein (30-40 μg) was loaded into gels purchased from BioRad. BioRad semi-dry transfer was used and then probed with antibodies against, pHER2, HER2, pPI3K, PI3K, p-AKT, AKT, p-ERK1/2, and ERK1/2 (1:1000; Cell Signaling). Blots were probed with antibodies against vinculin or β-actin (Sigma-Aldrich) as a loading control, and exposed using ECL Western Blotting substrate (Promega).

[4] = tested on: CW-2 large intestine cells harboring HER2 exon 19 mutation L755S; assay: CW-2 cell viability; format: cell-based; settings: Homo sapiens, CW-2, 72 h, read-out: average IC50
Method: as §1, with “Cell Viability Assay and IC50 Estimation: Cell viability was determined using the Cell Titer Glo assay (Promega) as previously described (Robichaux et al., 2018). Briefly,” for “Briefly,”, “slope. IC50 values were calculated by GraphPad Prism at 50% inhibition.” for “slope.”
Human Cell lines: MCF10A cells were purchased from ATCC and were cultured in DMEM/F12 media supplemented with 1% penicillin/streptomycin, 5% horse serum (sigma), 20 ng/ml EGF, […] hydrocortisone, and 10 μg/ml insulin. Stable cell lines were created by retroviral transduction, and retroviruses were generated by transfecting pBabe-Puro based vectors summarized in Table 1 (Addgene and Bioinnovatise) into Phoenix 293T-ampho cells (Orbigen) using Lipofectamine 2000 (Invitrogen). […]

[5] = tested on: CW-2 colorectal cell xenograft (HER2 L755S); assay: CW-2 xenograft mouse model; format: in vivo, nu/nu nude mice; settings: day 21, 30 mg/kg, 5 days/week
Method: In vivo xenograft studies: CW-2 cell line xenografts were created by injecting 1×10^6 cells in 50% matrigel into 6 week old female nu/nu nude mice. When tumors reached 350 mm^3 mice were randomized into 4 groups: 20 mg/kg afatinib, 5 mg/kg poziotinib, 30 mg/kg neratinib, or vehicle control (0.5% Methylcellulose, 2% Tween-80 in dH2O). Tumor volumes were measured three times per week. Mice received drug Monday-Friday (5 days per week), but began dosing on Wednesday allowing for a 2 day holiday after the first 3 days of dosing.

[6] = tested on: patients with HER2 mutant cancers; settings: cited from earlier work
[7] = tested on: HER2 Y772dupYVMA NSCLC PDX; assay: HER2 Y772dupYVMA NSCLC PDX model; format: in vivo, NSG mice
Method: Y772dupYVMA PDX mice were purchased from Jax Labs (Model #TM01446). Fragments from tumors expressing HER2 Y772dupYVMA were inoculated into 5- to 6-week old female NSG mice (Jax Labs #005557). Mice were measured three times per week, and when tumors reached a volume of 200-300 mm^3 mice were randomized into four treatment groups: vehicle control (0.5% Methylcellulose, 0.05% Tween-80 in dH2O), 2.5 mg/kg poziotinib, 10 mg/kg T-DM1, or combination of 2.5 mg/kg poziotinib and 10 mg/kg T-DM1. Tumor volumes and body weight were measured three times per week. Mice treated with 2.5 mg/kg poziotinib received drug orally Monday-Friday (5 days per week). Mice treated with 10 mg/kg T-DM1 received one intravenous (IV) dose of T-DM1 on the day of randomization. Mice treated with combination poziotinib and T-DM1 received one IV dose of T-DM1 and began 2.5 mg/kg poziotinib five days per week, 3 days after the dose of T-DM1. Mice received a holiday from dosing if the mouse dropped in body weight by greater than 10% or if body weight dropped below 20 grams. Progression free survival was defined as tumor doubling from best response for two consecutive measurements. Complete regression was defined as greater than 95% reduction in tumor burden, and for mice with complete regression, tumor doubling was defined greater than 75 mm^3 for more than two consecutive measurements. Experiments were completed in agreement with Good Animal Practices and with approval from MD Anderson Cancer Center Institutional Animal Care and Use Committee (Houston, TX).

[8] = tested on: patients with HER2 mutant NSCLC; settings: cited from earlier work; remark: listed apart in the source
[9] = lung cancer patients harboring HER2 exon 20 insertion mutations

COc1cc2ncnc(Nc3ccc(F)c(Cl)c3)c2cc1NC(=O)/C=C/CN1CCCCC1 [dacomitinib]
inhibitory activity for HER2 mutants across all three exons [1]: had inhibitory activity | ORR ([2]; HER2 mutant NSCLC): 11.5% | response rate [2, 9]: 11.5% | responses ([2]; patients bearing HER2 exon 20 insertion p.Y772dupYVMA): no responses

CS(=O)(=O)CCNCc1ccc(-c2ccc3ncnc(Nc4ccc(OCc5cccc(F)c5)c(Cl)c4)c3c2)o1 [lapatinib]
sensitivity of HER2 mutants to inhibitor [1]: robust resistance

C=CC(=O)Nc1cc(Nc2nccc(-c3cn(C)c4ccccc34)n2)c(OC)cc1N(C)CCN(C)C [osimertinib]
activity against cells expressing D769 variants [1]: did demonstrate activity | inhibiting cell viability in cells expressing exon 20 mutations [1]: not effective

CCOc1cc2ncc(C#N)c(Nc3ccc(OCc4ccccn4)c(Cl)c3)c2cc1NC(=O)/C=C/CN(C)C [neratinib]
IC50 values in Ba/F3 drug screening ([1]; HER2 L755S, V777L, or L869R mutations): low IC50 values | sensitivity of V842I mutation in the drug screen assays ([1]; HER2 V842I (exon 21)): not sensitive | inhibitory activity for HER2 mutants across all three exons [1]: had inhibitory activity | IC50 ([3]; Homo sapiens, MCF-10A, average over MCF10A G776del insVC, Y772dupYVMA, G778dupGSP cells, 72 hours): 150 nM | inhibition of p-HER2 (p-HER2): not | IC50 [4]: 68.8 nM | increased tumor volume compared to vehicle control [5]: 28% | objective response rate (ORR) ([6]; SUMMIT pan-cancer study, all HER2 mutations): less than 15% | ORR ([6]; SUMMIT, HER2 kinase domain point mutations): 21.4% | ORR ([6]; SUMMIT, exon 20 insertions): 7.1% | response ([6]; SUMMIT, patients with colorectal cancer): did not respond | response rate [6, 9]: 0% | ORR ([6]; patients with breast cancer, single agent, multiple studies): 12.5%-32% | response rate ([6]; patients with lung cancer, single agent): 0%-4%

T-DM1
inhibition of cell viability of MCF10A HER2 mutant cell lines ([3]; agent alone): did not inhibit cell viability | tumor growth after best response ([7]; by day 30): tumor growth resumed in all mice | mice with complete tumor regression ([7]; day 15 (best response), poziotinib 2.5 mg/kg, T-DM1 10 mg/kg single dose): 2/9 | median PFS (mPFS), time to tumor doubling from best response ([7]; poziotinib 2.5 mg/kg 5 days per week, T-DM1 10 mg/kg single IV dose): 27 days | ORR ([8]; patients harboring exon 20 insertion mutations): 54.5% | partial responses ([8]; patients with exon 19 mutations): did not have partial responses

CNC(=O)CN1CCC(Oc2cc3c(Nc4cccc(Cl)c4F)ncnc3cc2OC)CC1 [sapatinib]
sensitivity of HER2 mutants to inhibitor [1]: robust resistance

Cc1cc(C(=O)Nc2nc3cccc(Cl)c3n2[C@@H]2CCCCN(C(=O)/C=C/CN(C)C)C2)ccn1 [nazartinib]
activity against cells expressing D769 variants [1]: did demonstrate activity | inhibiting cell viability in cells expressing exon 20 mutations [1]: not effective

CCOc1cc2ncc(C#N)c(Nc3ccc(OCc4ccccn4)c(Cl)c3)c2cc1NC(=O)/C=C/[C@H]1CCCN1C [pyrotinib]
selectivity index (SI, IC50 value mutant/IC50 value WT) ([3]; MCF10A HER2 mutant vs HER2 WT cell lines): 0.063
